The term EC50 denotes the concentration at which the effect is half-maximal. Low readings indicate a more potent agent, high ones a less potent agent. Broadly, the Dmax is the largest share of the target that was removed. Read a high Dmax as deep degradation. One may read the IC50 as the concentration at which inhibition is half-maximal. A lower IC50 goes with inhibition by little substance.

In one test the target is DCAF15/RBM39 (Homo sapiens, UniProt Q14498+Q66K64). In words: AlphaLISA compound-induced DCAF15-RBM39 ternary complex formation. Conditions: His-tagged DCAF15 complex and biotin-carrying RBM39. It counts as binding. The method in brief:
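Compounds, serially diluted 3-fold from 2 mM DMSO stocks, were incubated 1 h at room temperature with His-tagged DCAF15 complex and biotinylated RBM39 (mixture at 408 nM each, 2.04×). The buffer was 50 mM HEPES pH 7.5, 100 mM NaCl, 2 mM MgCl2, 2 mM TCEP. Ni-chelate acceptor and streptavidin donor beads were added sequentially (1–2 h each), and the AlphaLISA signal was titrated.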

The target of the next test is T1, RBM39 (Homo sapiens, UniProt Q14498+Q66K64).
T1 construct: endogenous in cells; host or cells: HCT116
Description: Western blot assay for degradation of RBM39 in HCT116 cells. It counts as cell-based. The following applies: HCT-116, numeric values. The method, then:
HCT116 cells were used with passage numbers ranging from 13 to 25. Cells were seeded in 12-well plated at a density of 1 million cells per well in 1 mL cell culture medium containing McCoy's 5A medium (Cat. #16600082, ThermoFisher, Waltham, MA), 10% Fetal Bovine Serum (Cat. #26140, ThermoFisher, Waltham, MA) and 1% Pen-Strep (Cat. #. 15070063, ThermoFisher, Waltham, MA) and incubated overnight. The next morning, compounds were serially diluted (1:3, 9 points) in the medium separately and were prepared 2× the final assay concentration. Subsequently, 1.0 mL medium containing DMSO or the appropriate concentration of each compound was added to respective wells. The final DMSO concentration in each well was 0.1%. After 24 hour incubation with compounds, cell were harvested (approximately 90-100% confluency at the time of harvest). […] Lysates were then sonicated in a sonication bath (3 pulses of 10 sec each with 1 min incubation on ice between each pulse). Samples were then centrifuged for 20 min at 14,000 rpm for 20 min. Supernatants were then transferred to fresh microfuge tubes and stored frozen at −80° C. until use. Total protein quantitation in lysate samples was done using the BCA protein quantitation kit following the manufacturer's instructions. For polyacrylamide gel electrophoresis, each sample (15-30 […]), was diluted with Laemmli sample buffer (Cat. #. 1610747, BioRad, Hercules, CA) by adding 9 ul of lysate to 3 ul of sample buffer containing 10% β-mercaptoethanol. Samples were then denatured at 95° C. for 5 minutes in a heat block, centrifuged at 14,000 rpm for 5 min, and placed on ice. Subsequently, 12 ul of each sample was loaded on 4-20% Tris/Glycine gels and electrophoresed in 1×Tris/Glycine SDS buffer at 80 (constant) volts for 2 h. Resolved samples were then transferred from gels to PVDF membrane using the BioRad Turbo-transfer unit with the Turbo default program (Cat. #. 1704150EDU, BioRad, Hercules, CA). For immunoblotting, membranes were first blocked for 1 hour at room temperature using Odyssey Blocking Buffer (Cat. #: 927-60001, Li-cor, Lincoln, NE) with continuous rocking. Membrane was then incubated with primary antibodies, anti-RBM39 (Sigma Cat. #: HPA001591, St. Louis, MO) and anti-β-actin (Cell Signaling Cat. #3700S, Danvers, MA), diluted 1000 fold each, at 4° C. for overnight. […] Band intensity in images was quantified using the Image Studio Lite software (Version 5.2). Signal intensity for RBM-39 specific bands were normalized using the signal intensity for β-actin-specific band, and percent degradation was assessed by comparing RBM39 signal in compound-treated vs. DMSO-treated samples.

The target in a further test is DCAF15 (Homo sapiens, UniProt Q66K64). In words: HTRF competition assay, binary interaction between compounds and DCAF15. It counts as binding. Conditions: competition with Alexa Fluor 647 tracer, His-tagged DCAF15 complex. The method in brief: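 Compounds, 3-fold serially diluted in DMSO, competed with an Alexa Fluor 647 tracer (612 nM, 2.04× stock) for His-tagged DCAF15 complex (32 nM, 4× stock) premixed 15 min with anti-6His-Eu cryptate. Buffer was 25 mM HEPES pH 7.5, 100 mM NaCl, 0.5 mM TCEP. After 1 h at RT, the 615/666 nm ratio gave titration curves.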
A general note: TR-FRET usually uses a lanthanide donor and a delayed reading to cut background.

T1 sequence (Q66K64 whole entry): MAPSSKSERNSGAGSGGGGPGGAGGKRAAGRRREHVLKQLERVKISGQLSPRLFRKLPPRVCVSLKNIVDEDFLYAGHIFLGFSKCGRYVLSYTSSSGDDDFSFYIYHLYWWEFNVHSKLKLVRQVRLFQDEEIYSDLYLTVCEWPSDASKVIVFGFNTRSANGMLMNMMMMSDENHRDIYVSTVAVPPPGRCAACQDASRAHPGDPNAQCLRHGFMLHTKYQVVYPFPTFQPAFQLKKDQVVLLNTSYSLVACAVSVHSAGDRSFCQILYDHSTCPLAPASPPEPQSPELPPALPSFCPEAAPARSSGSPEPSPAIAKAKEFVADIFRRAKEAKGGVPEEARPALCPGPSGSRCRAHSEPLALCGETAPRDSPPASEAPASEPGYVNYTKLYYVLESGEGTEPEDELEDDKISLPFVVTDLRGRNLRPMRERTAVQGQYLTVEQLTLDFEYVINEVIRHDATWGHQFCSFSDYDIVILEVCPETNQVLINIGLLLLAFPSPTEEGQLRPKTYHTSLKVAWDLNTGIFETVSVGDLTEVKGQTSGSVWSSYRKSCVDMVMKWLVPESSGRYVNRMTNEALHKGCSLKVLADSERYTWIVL
T1 sequence (Q14498 2-530): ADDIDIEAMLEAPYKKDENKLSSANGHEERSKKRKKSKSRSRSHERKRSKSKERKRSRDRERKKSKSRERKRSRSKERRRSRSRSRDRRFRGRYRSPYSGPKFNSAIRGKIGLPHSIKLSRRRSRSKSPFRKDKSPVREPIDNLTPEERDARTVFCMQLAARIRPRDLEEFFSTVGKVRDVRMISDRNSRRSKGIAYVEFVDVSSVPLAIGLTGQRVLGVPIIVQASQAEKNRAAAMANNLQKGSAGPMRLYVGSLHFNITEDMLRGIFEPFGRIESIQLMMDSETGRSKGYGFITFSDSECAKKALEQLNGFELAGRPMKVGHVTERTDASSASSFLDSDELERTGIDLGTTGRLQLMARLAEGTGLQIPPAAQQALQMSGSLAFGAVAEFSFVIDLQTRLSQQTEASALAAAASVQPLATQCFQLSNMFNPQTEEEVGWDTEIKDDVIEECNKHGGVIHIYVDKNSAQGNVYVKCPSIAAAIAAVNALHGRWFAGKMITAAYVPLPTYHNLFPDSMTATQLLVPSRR
T1 sequence (Q16531 whole entry, further chain): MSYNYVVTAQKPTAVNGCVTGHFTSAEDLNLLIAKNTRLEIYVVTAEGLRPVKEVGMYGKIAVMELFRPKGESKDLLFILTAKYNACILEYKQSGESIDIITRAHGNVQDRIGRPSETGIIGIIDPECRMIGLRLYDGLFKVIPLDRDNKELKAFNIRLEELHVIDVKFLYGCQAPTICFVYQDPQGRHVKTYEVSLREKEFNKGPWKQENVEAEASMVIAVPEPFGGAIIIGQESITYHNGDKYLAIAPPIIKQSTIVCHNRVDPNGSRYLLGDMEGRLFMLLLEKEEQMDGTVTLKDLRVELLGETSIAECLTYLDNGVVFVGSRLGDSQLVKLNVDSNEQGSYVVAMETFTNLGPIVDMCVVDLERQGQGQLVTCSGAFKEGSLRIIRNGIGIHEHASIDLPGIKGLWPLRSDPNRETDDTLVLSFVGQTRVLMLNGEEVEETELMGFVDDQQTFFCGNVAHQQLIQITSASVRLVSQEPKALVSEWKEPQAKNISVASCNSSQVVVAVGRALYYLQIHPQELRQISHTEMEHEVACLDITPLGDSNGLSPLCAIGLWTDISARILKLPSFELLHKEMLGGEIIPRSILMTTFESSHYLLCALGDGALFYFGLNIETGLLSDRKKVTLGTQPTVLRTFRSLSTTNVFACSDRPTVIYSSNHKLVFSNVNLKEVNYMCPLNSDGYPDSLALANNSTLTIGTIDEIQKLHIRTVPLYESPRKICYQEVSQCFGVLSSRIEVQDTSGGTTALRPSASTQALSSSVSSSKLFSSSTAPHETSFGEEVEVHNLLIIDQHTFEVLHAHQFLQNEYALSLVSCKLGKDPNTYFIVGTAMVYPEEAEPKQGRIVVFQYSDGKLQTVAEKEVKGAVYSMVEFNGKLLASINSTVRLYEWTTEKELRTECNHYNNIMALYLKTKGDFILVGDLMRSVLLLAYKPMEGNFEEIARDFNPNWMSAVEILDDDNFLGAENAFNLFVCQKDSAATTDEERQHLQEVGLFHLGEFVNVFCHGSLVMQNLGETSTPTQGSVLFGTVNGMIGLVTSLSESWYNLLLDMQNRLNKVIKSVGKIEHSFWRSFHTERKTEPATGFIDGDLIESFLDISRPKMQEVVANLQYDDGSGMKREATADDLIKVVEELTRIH

At DCAF15/RBM39, `O=C(COc1ccc(S(=O)(=O)Nc2ccc(Cl)c3c(Cl)c[nH]c23)cc1)NC1CC1` [Compound 39] yielded an EC50 of less than 1000 nM. For the same molecule, on RBM39, the Dmax amounted to 97.6%. In addition, the IC50 at DCAF15 was more than 100 µM.
In the same order, the values of `CCS(=O)(=O)CCOc1ccc(S(=O)(=O)Nc2ccc(Cl)c3c(Cl)c[nH]c23)cc1` [Compound 71] are 1000 to 10000 nM, 100% and 1 to 10 µM.
As to `O=C(NC1CC1)c1ccc(S(=O)(=O)Nc2ccc(Cl)c3c(Cl)c[nH]c23)cc1` [Compound 153], the EC50 at DCAF15/RBM39 was less than 1000 nM. The molecule further registered a Dmax on RBM39 of 94.8%. This molecule also had an IC50 on DCAF15 of 1 to 10 µM.
On DCAF15/RBM39, `O=C(c1ccc(S(=O)(=O)Nc2ccc(Cl)c3c(Cl)c[nH]c23)c(F)c1)N1CC(N2CCc3ccccc32)C1` [Compound 215] came in with an EC50 of 1000 to 10000 nM. The IC50 at DCAF15 lay within 10 to 100 µM.
For `O=C(c1cccc(S(=O)(=O)Nc2ccc(Cl)c3c(Cl)c[nH]c23)c1F)N1CC[C@H](n2ccnn2)C1` [Compound 216], the EC50 at DCAF15/RBM39 is less than 1000 nM. The molecule further displayed an IC50 on DCAF15 of less than 1 µM.
Taken in the same sequence, the figures for `O=C(c1ccc(S(=O)(=O)Nc2ccc(Cl)c3c(Cl)c[nH]c23)c(F)c1)N1CC[C@H](n2ccnn2)C1` [Compound 217] were less than 1000 nM and less than 1 µM.
The molecule `O=C(c1cccc(S(=O)(=O)Nc2ccc(Cl)c3c(Cl)c[nH]c23)c1)N1CCOCC1` [Compound 218] came in with an EC50 at DCAF15/RBM39 of less than 1000 nM. Moreover, the Dmax on RBM39 stood at 100%. In addition, the IC50 on DCAF15 lay in the range of 1 to 10 µM.
Turning to `O=C(c1cccc(S(=O)(=O)Nc2ccc(Cl)c3c(Cl)c[nH]c23)c1F)N1CCC(Oc2cccnc2)CC1` [Compound 219], the EC50 at DCAF15/RBM39 was less than 1000 nM. Moreover, the IC50 on DCAF15 is less than 1 µM.
Taken in the same sequence, the figures for `O=C(c1ccc(S(=O)(=O)Nc2ccc(Cl)c3c(Cl)c[nH]c23)c(F)c1)N1CCC(Oc2cccnc2)CC1` [Compound 220] were less than 1000 nM and 1 to 10 µM.
Taken in the same sequence, the figures for `O=C(c1cccc(S(=O)(=O)Nc2ccc(Cl)c3c(Cl)c[nH]c23)c1F)N1CCC(c2ccnc(C(F)F)c2)CC1` [Compound 221] were less than 1000 nM and less than 1 µM.
Taken in the same sequence, the figures for `O=C(c1ccc(S(=O)(=O)Nc2ccc(Cl)c3c(Cl)c[nH]c23)c(F)c1)N1CCC(c2ccnc(C(F)F)c2)CC1` [Compound 222] were more than 100000 nM and more than 100 µM.
`CN1CCN(C(=O)c2ccc(S(=O)(=O)Nc3ccc(Cl)c4c(Cl)c[nH]c34)cc2)CC1` [Compound 223] came in with an EC50 at DCAF15/RBM39 of less than 1000 nM. Further, the IC50 on DCAF15 was 1 to 10 µM.
Taken in the same sequence, the figures for `CC(C)(C)OC(=O)N1CCC2(CC1)CN(C(=O)c1cccc(S(=O)(=O)Nc3ccc(Cl)c4c(Cl)c[nH]c34)c1F)CCO2` [Compound 224] were less than 1000 nM and 1 to 10 µM.
`CC(C)(C)OC(=O)N1CCC2(CC1)CN(C(=O)c1ccc(S(=O)(=O)Nc3ccc(Cl)c4c(Cl)c[nH]c34)c(F)c1)CCO2` [Compound 225] showed an EC50 at DCAF15/RBM39 of 1000 to 10000 nM. The IC50 on DCAF15 lay within 1 to 10 µM.
In the same order, the values of `O=C(c1cccc(S(=O)(=O)Nc2ccc(Cl)c3c(Cl)c[nH]c23)c1F)N1CCc2[nH]c(-c3ccccc3)nc2C1` [Compound 226] are less than 1000 nM and 1 to 10 µM.
Take `O=C(c1ccc(S(=O)(=O)Nc2ccc(Cl)c3c(Cl)c[nH]c23)c(F)c1)N1CCc2[nH]c(-c3ccccc3)nc2C1` [Compound 227]: the 50% effective concentration (EC50) at DCAF15/RBM39 lay in the range of 1000 to 10000 nM. For the same molecule, on DCAF15, the IC50 was 1 to 10 µM.
In the same order, the values of `Cc1nc2c(n1C)CCN(C(=O)c1cccc(S(=O)(=O)Nc3ccc(Cl)c4c(Cl)c[nH]c34)c1F)C2` [Compound 228] are less than 1000 nM and less than 1 µM.
Taken in the same sequence, the figures for `Cc1nc2c(n1C)CCN(C(=O)c1ccc(S(=O)(=O)Nc3ccc(Cl)c4c(Cl)c[nH]c34)c(F)c1)C2` [Compound 229] were less than 1000 nM and less than 1 µM.
In the same order, the values of `CC(C)CCOc1ccc(S(=O)(=O)Nc2ccc(Cl)c3c(Cl)c[nH]c23)cc1` [Compound 230] are 1000 to 10000 nM and 1 to 10 µM.
Molecule `COCCOc1ccc(S(=O)(=O)Nc2ccc(Cl)c3c(Cl)c[nH]c23)cc1Br` [Compound 231] returned an EC50 at DCAF15/RBM39 of 1000 to 10000 nM. At DCAF15, the IC50 was 1 to 10 µM.
Turning to `CCOCCOc1ccc(S(=O)(=O)Nc2ccc(Cl)c3c(Cl)c[nH]c23)cc1C(C)C` [Compound 232], the EC50 on DCAF15/RBM39 is 1000 to 10000 nM. In addition, the IC50 at DCAF15 is more than 100 µM.
Taken in the same sequence, the figures for `CC(C)c1cc(S(=O)(=O)Nc2ccc(Cl)c3c(Cl)c[nH]c23)ccc1OCc1ccccc1` [Compound 233] were 10000 to 100000 nM and 10 to 100 µM.
For the molecule `O=S(=O)(Nc1ccc(Cl)c2c(Cl)c[nH]c12)c1ccc(Oc2ccc(F)cc2)c(Br)c1` [Compound 234], the EC50 at DCAF15/RBM39 was 1000 to 10000 nM. Moreover, the IC50 at DCAF15 is more than 100 µM.
Regarding `NC(=O)c1cc(Cl)cc(S(=O)(=O)Nc2ccc(Cl)c3c(Cl)c[nH]c23)c1` [Compound 235], the EC50 on DCAF15/RBM39 was in the range of 1000 to 10000 nM. This molecule also came in with an IC50 on DCAF15 of 1 to 10 µM.
Taken in the same sequence, the figures for `CNC(=O)c1cccc(S(=O)(=O)Nc2ccc(Cl)c3c(Cl)c[nH]c23)c1F` [Compound 236] were less than 1000 nM and 1 to 10 µM.
In turn, `CNC(=O)c1ccc(F)c(S(=O)(=O)Nc2ccc(Cl)c3c(Cl)c[nH]c23)c1` [Compound 237] returned an EC50 at DCAF15/RBM39 of 1000 to 10000 nM. The IC50 at DCAF15 is 10 to 100 µM.
The molecule `CN(C)C(=O)c1cccc(S(=O)(=O)Nc2ccc(Cl)c3c(Cl)c[nH]c23)c1` [Compound 238] had an EC50 at DCAF15/RBM39 of 1000 to 10000 nM. This molecule had an IC50 at DCAF15 of 1 to 10 µM.
In the same order, the values of `CC(C)CNC(=O)c1ccc(S(=O)(=O)Nc2ccc(Cl)c3c(Cl)c[nH]c23)cc1` [Compound 239] are less than 1000 nM and more than 100 µM.
In the same order, the values of `CC(C)CNC(=O)c1ccc(S(=O)(=O)Nc2ccc(Cl)c3c(Cl)c[nH]c23)c(F)c1` [Compound 240] are less than 1000 nM and 1 to 10 µM.

For the origin of these results see patent US20240327351A1, “AMIDE AND ETHER SUBSTITUTED N-(1H-INDOL-7-YL)BENZENESULFONAMIDES AND USES THEREOF” (TRIANA BIOMEDICINES, INC., priority 2021, published 2024).
